Read-outs that look alike come from different tables or passages of the source.
Legend:
[1] = test system: Factor V deficient human plasma; test: DDPTGA (reagent B) in FV depleted plasma; details: compounds at 50 μM and 80, 90 or 100 μM
Method: (§1) The Defined Dual-Pathway Thrombin Generation Assay is performed as described below, using a commercial test kit (Technothrombin TGA, Technoclone GmbH, Vienna, Austria). […] USA) are incubated four minutes at 37° C. Preferably, Reagent C high is used. Thrombin generation is started by the addition of 40 μl of one of several types of human plasma (37° C.). […] By deviating the original fluorescence data the amount of generated thrombin is calculated from a standard curve constructed using a concentration range of thrombin.
(§2) The in vitro thrombin generation assay based on the cleavage of Z-GGR-AMC to release the fluorophore AMC, described in the specific description, i.e. the Defined Dual-Pathway Thrombin Generation Assay was used to characterise the effect of the compounds in several depleted human plasmas. […] 10 μl peptide dilution, 40 μl TGA substrate and 40 μl plasma were used as described in the specific description.
(§3) The plasmas used in the experiments were fresh frozen and were deficient in Factor V, Factor VII/VIIa, Factor VIII, Factor X or Factor XI (George King Bio-Medical, Inc.). Residual coagulation factor levels of deficient plasmas were specified as less than 1%.
(§4) For each depleted plasma used in the experiments, compounds were tested at two concentrations, namely 50 μM and 80, 90 or 100 μM. A negative control was used, in which no test compound was included.

physchem = details: for solubility kinetic: pH 7.4
Method: Aqueous solubility is measured in PBS at pH 7.4 either in an assay provided by Cerep (France, Catalog ref. 900-11a) or according to the following protocol. The aim of this procedure is to determine the solubility of a drug candidate (analyte) in a buffer, by estimating the saturation concentration of the candidate in the buffer using HPLC. A known concentration of the candidate in an organic solvent is used as a standard. A stock solution of the test compound in DMSO must be prepared as the initial step. […] DMSO stock-solutions are diluted to a final concentration of 50 μM with DMSO (100% reference-solution) and buffer (test-solution) to provide a minimum volume of 500 μL of each. Both solutions are shaken at 25° C. at 950 rpm in an Eppendorf “thermomixer comfort” for at least 60 min. The suspension is centrifuged at 22 330 g for at least two min and 100 μL of the supernatant is transferred into polypropylene-inserts placed in glass vials and closed by snap-ring caps. Alternatively the solutions can be prepared in microtiter plates with half of the previously described starting solvent volume. For the determination of the solubility all samples are analyzed by HPLC in triplicate. Injection volume is at least 10 μL. The obtained data are analyzed by “Chemstation-software” (Agilent, Waldbronn, Germany). The peaks from the analyses of the organic solutions are integrated and the arithmetic mean is reported as “AUC 1” (reference area of known amount injected at the HPLC). […] The ratio of the mean “AUC 2” and “AUC 1” is calculated and thus the percentage of the dissolved amount of compound in buffer is obtained and solubility can be reported in μM.

[2] = test system: Factor XI deficient human plasma; test: DDPTGA (reagent B) in FXI depleted plasma; details: compounds at 50 μM and 80, 90 or 100 μM
Method: as §1, §2, §3, §4

FVIII deficient plasma = test: Defined Dual-Pathway Thrombin Generation Assay (DDPTGA, reagent C high), FVIII deficient plasma; type: biochemical, human; details: FVIII deficient plasma
Acute toxicology in mice = type: in vivo, mouse; details: C57BL/6, mouse, in vivo, 60 minutes following administration, read-out: Max dose within toxicity category: No detected toxicity
Method: Toxicology studies involved monitoring of attitude changes due to toxic effects immediately after application and twice daily; monitoring of body weight; histopathology of brain, heart, kidney, liver, lung. Experiments were performed in C57131/6 mice.
C57BI/6 mice weighing 18-20 g were administered with compounds in a suitable vehicle i.v. in the tail vein or i.p. or s.c at 10 ml/kg. Quantities of the compounds administered were in the range of 0.075 to 125 mg/kg (i.v.), 15-125 mg/kg (i.p.) and 125 mg/kg (s.c.). There were four mice per group. Attitude changes due to toxic effects were monitored immediately after administration of the compound and for 60 minutes thereafter. Body weight was monitored for five days after administration. At day 5 after administration, mice were culled and autopsy performed. Brain, heart, kidney, liver, lung and spleen were biopsied.
In the above table, the maximum dose tested giving rise to no detected toxicity, some toxicity or severe toxicity over the period of 60 minutes following administration is reported. “No detected toxicity” indicates no acute toxic observations.

[3] = test system: Factor VIII deficient human plasma; test: DDPTGA (reagent B) in FVIII depleted plasma; type: biochemical; details: compounds at 50 μM and 80, 90 or 100 μM; note: key: '+' means stimulates; '−' means does not stimulate
Source text: Preferably, Reagent C high is used.

[4] = test system: human FVIII inhibited plasma; test: Defined Intrinsic Thrombin Generation Assay (DITGA, triggered by FXIa and phospholipids); type: biochemical; details: for Activity in the Defined Intrinsic Thrombin Generation Assay: summary
FVIII inhibited plasma = test: Defined Dual-Pathway Thrombin Generation Assay (DDPTGA, reagent C high), FVIII inhibited plasma; type: biochemical, human; details: for Peak IIa FEIBA EU / Peak IIa FVIIa EU / Peak Time FEIBA EU / Peak Time FVIIa EU: FVIII inhibited plasma
[5] = test system: Factor VII/VIIa deficient human plasma; test: DDPTGA (reagent B) in FVII depleted plasma; details: compounds at 50 μM and 80, 90 or 100 μM
Method: as §1, §2, §3, §4

[6] = test system: Factor X deficient human plasma; test: DDPTGA (reagent B) in FX depleted plasma; details: compounds at 50 μM and 80, 90 or 100 μM
Method: as §1, §2, §3, §4

Q: Which results are given for Ac-RMKFDVWDLYFEIVW-NH2 [Peptide A01]?
A: Stimulation of thrombin generation [1]: −; solubility kinetic (physchem): 9 µM; solubility (physchem; pH 7.4, Aqueous solubility): 9 µM; Stimulation of thrombin generation [2]: +; Peak IIa FVIII EU (FVIII deficient plasma; peptide 50 μM): BLS (BLS = below lowest standard.); Peak Time FVIII EU (FVIII deficient plasma; peptide 50 μM): BLS (BLS = below lowest standard.); Peak IIa FVIII EU (FVIII deficient plasma; peptide 90 μM): BLS (BLS = below lowest standard.); Peak Time FVIII EU (FVIII deficient plasma; peptide 90 μM): BLS (BLS = below lowest standard.); NOAEL at 1 h (Acute toxicology in mice; ip): 20 mg/kg; NOAEL at 1 h (Acute toxicology in mice; iv): 20 mg/kg; Stimulation of thrombin generation [3]: +; Thrombin peak time given as FEIBA equivalent activity ([4]; peptide 6.25 μM): 97 mU/ml; Thrombin peak time given as FEIBA equivalent activity ([4]; peptide 12.5 μM): 138 mU/ml; Thrombin peak time given as FEIBA equivalent activity ([4]; peptide 25 μM): 160 mU/ml; Thrombin peak time given as FEIBA equivalent activity ([4]; peptide 50 μM): 227 mU/ml; Thrombin peak time given as FEIBA equivalent activity ([4]; peptide 100 μM): 338 mU/ml; Activity in the Defined Intrinsic Thrombin Generation Assay [4]: possess activity; Peak IIa FEIBA EU (FVIII inhibited plasma; peptide 50 μM): BLS (BLS = below lowest standard.); Peak IIa FVIIa EU (FVIII inhibited plasma; peptide 50 μM): BLS (BLS = below lowest standard.); Peak Time FEIBA EU (FVIII inhibited plasma; peptide 50 μM): BLS (BLS = below lowest standard.); Peak Time FVIIa EU (FVIII inhibited plasma; peptide 50 μM): BLS (BLS = below lowest standard.); Peak IIa FEIBA EU (FVIII inhibited plasma; peptide 90 μM): BLS (BLS = below lowest standard.); Peak IIa FVIIa EU (FVIII inhibited plasma; peptide 90 μM): BLS (BLS = below lowest standard.); Peak Time FEIBA EU (FVIII inhibited plasma; peptide 90 μM): BLS (BLS = below lowest standard.); Peak Time FVIIa EU (FVIII inhibited plasma; peptide 90 μM): BLS (BLS = below lowest standard.); Stimulation of thrombin generation [5]: +; Stimulation of thrombin generation [6]: −

Q: For Ac-PMKFDVWDLYFEIVW-NH2 [Peptide A02], which “Stimulation of thrombin generation” value [1] is on record?
A: −

Q: What about the solubility kinetic (physchem) of the same substance?
A: 35 µM

Q: And the solubility (physchem; pH 7.4, Aqueous solubility)?
A: 35 µM

Q: And the solubility (physchem; pH 7.4, Solubility in PBS pH 7.4)?
A: ≥ 25 µM

Q: And the “Stimulation of thrombin generation” value [2]?
A: +

Q: What about the “Peak IIa FVIII EU” value (FVIII deficient plasma; peptide 50 μM) of the same substance?
A: BLS (BLS = below lowest standard.)

Q: What about the “Peak Time FVIII EU” value (FVIII deficient plasma; peptide 50 μM) of the same substance?
A: BLS (BLS = below lowest standard.)

Q: What about the NOAEL at 1 h (Acute toxicology in mice; ip) of the same substance?
A: 25 mg/kg

Q: And the NOAEL at 1 h (Acute toxicology in mice; iv)?
A: 25 mg/kg

Q: And the “Stimulation of thrombin generation” value [3]?
A: +

Q: What about the “Thrombin peak time given as FEIBA equivalent activity” value (from here on “Thrombin peak time given”) ([4]; peptide 6.25 μM) of the same substance?
A: 577 mU/ml

Q: And the “Thrombin peak time given” value ([4]; peptide 12.5 μM)?
A: 674 mU/ml

Q: And the “Thrombin peak time given” value ([4]; peptide 25 μM)?
A: 780 mU/ml

Q: What about the “Thrombin peak time given” value ([4]; peptide 50 μM) of the same substance?
A: 1018 mU/ml

Q: And the “Thrombin peak time given” value ([4]; peptide 100 μM)?
A: 1305 mU/ml

Q: What about the “Activity in the Defined Intrinsic Thrombin Generation Assay” value [4] of the same substance?
A: possess activity

Q: What about the “Peak IIa FEIBA EU” value (FVIII inhibited plasma; peptide 50 μM) of the same substance?
A: BLS (BLS = below lowest standard.)

Q: And the “Peak IIa FVIIa EU” value (FVIII inhibited plasma; peptide 50 μM)?
A: BLS (BLS = below lowest standard.)

Q: What about the “Peak Time FEIBA EU” value (FVIII inhibited plasma; peptide 50 μM) of the same substance?
A: 10.2 mU/ml

Q: What about the “Peak Time FVIIa EU” value (FVIII inhibited plasma; peptide 50 μM) of the same substance?
A: 0.4 nM

Q: What about the “Activity in the Defined Dual-Pathway Thrombin Generation Assay” value (FVIII inhibited plasma; summary, FVIII inhibited or deficient plasma) of the same substance?
A: possess activity

Q: And the “Stimulation of thrombin generation” value [5]?
A: +

Q: And the “Stimulation of thrombin generation” value [6]?
A: +

Source: US10822376B2, “Biologically active peptides” (Baxalta Incorporated, priority 2008, dated 2020)
